Series [1] deals with CYP2C19 and CYP3A4. The conditions noted are these: major metabolite of voriconazole, in vitro studies; cited from earlier work.
The format of series [2] is in vivo, human (Chinese patients).

The structures appear in SMILES notation. Where two headings read alike, the source gives them in different places.

Consider `C[C@@H](c1nc[n+]([O-])cc1F)[C@](O)(Cn1cncn1)c1ccc(F)cc1F` [voriconazole N-oxide], for which the “Share of all metabolites” value in series [1] is listed as “about 74%”.
With `C[C@@H](c1ncncc1F)[C@](O)(Cn1cncn1)c1ccc(F)cc1F` [voriconazole], the “Frequency of supra-therapeutic levels (> 5µg/mL)” value in series [2] (CYP2C19 intermediate metabolizer patients) turned out to be 13.5%; in series [2] (CYP2C19 normal metabolizer patients), 15.4%; in series [2] (CYP2C19 poor metabolizer patients), 47.8%. Besides, the “Median trough concentration of voriconazole in sub-group analysis” value in series [2] (PM/PPIs users group, excluding cases administered omeprazole or esomeprazole) was “below supra-therapeutic levels”. Also, in series [2] (human, plasma, 200 mg, Voriconazole trough concentration, median (IQR), all patients, 250 samples from 114 patients, voriconazole 200mg 12hrly, steady state), the concentration at 12 h came out at 2100 ng/mL.

Values taken from PMC8572102 (Pharmacogenomics and Personalized Medicine, 2021).
